From ChEMBL document CHEMBL1201862, “PubChem BioAssay data set” (2004) come the findings set out here.

Common to all, as to assay: inhibition of tumour cell growth, NCI panel, 48 h
For assay [1], the system named is 786-0.
Assay [2] relates to A549.
For assay [3], the system named is DU-145.
In assay [4] the test system is EKVX.
The test system of assay [5] is HOP-62.
In assay [6] the test system is Hs-578T.
Assay [7] concerns K562.
Assay [8] has as its system KM12.
For assay [9], the system named is M14.
Assay [10] has as its system MDA-N.
For assay [11], the system named is MOLT-4.
Assay [12] concerns NCI-H522.
Assay [13] deals with PC-3.
In assay [14] the test system is RPMI-8226.
For assay [15], the system named is SF-295.
In assay [16] the test system is SF-539.
Assay [17] concerns SNB-19.
Assay [18] relates to UACC-257.
Assay [19] deals with UACC-62.
Assay [20] relates to MDA-MB-231.

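Test compounds were applied to cells in 96-well plates for 48 hours at 5 doses. GI50 marks 50% less growth.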 The source made the active and inactive calls. Rule as the data show it: active = GI50 up to about 1.1 µM and inactive = higher.

In the case of `O=C1O/C(=C(\Br)c2ccc([N+](=O)[O-])cc2)c2ccccc21`, the GI50 is > 54.6 µM (inactive) in assay [1]; > 100 µM (inactive) in assay [2]; > 100 µM (inactive) in assay [3]; > 100 µM (inactive) in [4]; > 80.9 µM (inactive) in assay [5]; 74.8 µM (inactive) in assay [6]. The GI50 in assay [7] is 30.1 µM (inactive); in assay [8], > 100 µM (inactive); in assay [9], > 100 µM (inactive); in [10], > 66.2 µM (inactive); in assay [11], 27.8 µM (inactive); in assay [12], 38.5 µM (inactive). The GI50 is > 100 µM (inactive) in assay [13]; 38.7 µM (inactive) in assay [14]; > 100 µM (inactive) in [15]; > 100 µM (inactive) in [16]; > 100 µM (inactive) in assay [17]; > 74.8 µM (inactive) in assay [18]. Besides, in assay [19], the GI50 was 58.5 µM (inactive).
Take `CC1OC(OC2C(OC(=O)[C@@H]3CC(C)(C)C[C@@H]4C5=CC[C@@H]6[C@@]7(C)C[C@H](O)[C@H](OC8OC(CO)C(O)C(O)C8O)[C@@](C)(CO)C7[C@H](O)C[C@@]6(C)[C@]5(C)C[C@@H](O)[C@H]43)OCC(O)C2O)C(O)C(O)C1O` (stereo partly specified): the GI50 in assay [1] is > 15 µM (inactive); in [3], > 15 µM (inactive); in assay [4] it was 9.73 µM (inactive); in [5] it was > 15 µM (inactive); in [6], > 15 µM (inactive); in assay [7], > 15 µM (inactive). The GI50 is > 15 µM (inactive) in assay [8]; > 15 µM (inactive) in assay [9]; > 15 µM (inactive) in [20]; > 15 µM (inactive) in assay [11]; 6.12 µM (inactive) in assay [12]; > 15 µM (inactive) in assay [13]. Also, the GI50 in [15], in [16], in assay [17], in assay [18] and in assay [19] was > 15 µM (inactive) throughout.
As to `C=CCc1ccccc1C1CC2(C(=O)OC)OC1C(C(=O)OC)=C2C(=O)OC` (stereo unspecified), the GI50 in assay [1], in assay [2], in assay [3], in assay [4], in [5] and in assay [6] was > 10 µM (inactive) each time. For the same compound, the GI50 in assay [7], in assay [8], in assay [9], in [20], in assay [10] and in [11] was > 10 µM (inactive) throughout. The GI50 in assay [13], in [14], in [15], in [16], in [17] and in assay [18] was > 10 µM (inactive) each time. For the same compound, in assay [19], the GI50 is > 10 µM (inactive).
In the case of `COc1cc2c3c(c4cc(OC)c(OC)cc4c2cc1OC)[C@H](O)[C@@H]1CCCN1C3`, the GI50 was < 0.0321 µM (active) in assay [1]; < 0.0254 µM (active) in assay [2]; < 0.0243 µM (active) in assay [3]; < 0.0217 µM (active) in [4]; < 0.0198 µM (active) in assay [5]; < 0.021 µM (active) in assay [7]. The GI50 in assay [8] was < 0.0232 µM (active); in assay [9] it was < 0.0332 µM (active); in [20], < 0.0342 µM (active); in assay [10], < 0.0363 µM (active); in assay [11], < 0.01 µM (active); in [12], < 0.0378 µM (active). In addition, the GI50 in assay [13] is < 0.0303 µM (active); in [14], < 0.0253 µM (active); in assay [15], < 0.0222 µM (active); in [16], < 0.0365 µM (active); in assay [17], 0.0276 µM (active); in assay [18] it was < 0.0383 µM (active). For the same compound, the GI50 in [19] is < 0.0337 µM (active).
For `C=CC(=O)N1C/C(=C\c2ccc(N(C)C)cc2)C(=O)/C(=C/c2ccc(N(C)C)cc2)C1`, the GI50 was 42.1 µM (inactive) in assay [1]; > 100 µM (inactive) in assay [2]; > 100 µM (inactive) in assay [3]; > 100 µM (inactive) in assay [4]; > 100 µM (inactive) in assay [5]; 30 µM (inactive) in assay [6]. The GI50 in [7] is 8.97 µM (inactive); in [8], 8.67 µM (inactive); in [9], > 100 µM (inactive); in assay [20], > 100 µM (inactive); in [10] it was 17.8 µM (inactive); in [11] it was 25.8 µM (inactive). Also, the GI50 in assay [13] was 34 µM (inactive); in assay [15] it was 18.5 µM (inactive); in [16], 26.2 µM (inactive); in assay [17], > 100 µM (inactive); in [18], > 100 µM (inactive); in [19], 44.3 µM (inactive).
`O=c1n(CCCN2CCOCC2)nc2n1-c1ccc3ccccc3c1SC2`: the GI50 is 16 µM (inactive) in [1]; 50 µM (inactive) in assay [2]; 87.9 µM (inactive) in assay [3]; 89.7 µM (inactive) in assay [4]; 52.2 µM (inactive) in [5]; 37.6 µM (inactive) in assay [6]. The GI50 is 67.1 µM (inactive) in assay [7]; 47.3 µM (inactive) in [8]; 6.17 µM (inactive) in assay [10]; 39.3 µM (inactive) in [11]; 22.3 µM (inactive) in [12]; 38.6 µM (inactive) in assay [13]. For the same compound, the GI50 in [14] was 45.2 µM (inactive); in [15], 19.9 µM (inactive); in assay [16], 39.6 µM (inactive); in assay [17], 52.6 µM (inactive); in [18] it was 29.8 µM (inactive); in assay [19], 21.4 µM (inactive).
Regarding `COc1ccc(C[n+]2cccc(O)c2)cc1`, the GI50 in assay [1], in assay [2], in assay [3], in assay [4], in assay [5] and in assay [6] was > 100 µM (inactive) in each case. Moreover, the GI50 in assay [7], in assay [8], in assay [9], in [20], in assay [10] and in assay [11] was > 100 µM (inactive) each time. Further, the GI50 in [13], in assay [15], in [16], in assay [17] and in assay [19] was > 100 µM (inactive) each time.
Turning to `Clc1ccc(OCc2nnc(CCCCCCCCc3nnc(COc4ccc(Cl)cc4Cl)o3)o2)c(Cl)c1`, the GI50 is 47.1 µM (inactive) in assay [1]; 49.2 µM (inactive) in assay [2]; 85.9 µM (inactive) in assay [3]; > 100 µM (inactive) in assay [4]; 18.2 µM (inactive) in [7]; 95.1 µM (inactive) in assay [8]. The GI50 in [9] is > 100 µM (inactive); in [20], > 100 µM (inactive); in [10] it was > 100 µM (inactive); in assay [11], 14.3 µM (inactive); in assay [12], 18.7 µM (inactive); in assay [13], 60.3 µM (inactive). Further, the GI50 was 58.9 µM (inactive) in [14]; 85.1 µM (inactive) in assay [15]; 69.3 µM (inactive) in assay [17]; > 100 µM (inactive) in assay [18]; > 100 µM (inactive) in [19].
Regarding `O=C1/C(=C/c2ccc(Cl)cc2)N=C(c2ccccc2)N1c1ccc(S(=O)(=O)Nc2nccs2)cc1`, the GI50 is 46 µM (inactive) in assay [1]; 52.4 µM (inactive) in assay [2]; > 100 µM (inactive) in assay [3]; 31.5 µM (inactive) in [4]; 62.2 µM (inactive) in assay [5]; 64.4 µM (inactive) in [6]. Moreover, the GI50 was 33 µM (inactive) in assay [7]; 24.8 µM (inactive) in assay [8]; 47.5 µM (inactive) in assay [9]; 18.9 µM (inactive) in assay [20]; 26 µM (inactive) in [10]; 33.2 µM (inactive) in assay [11]. For the same compound, the GI50 in assay [13] is 31.6 µM (inactive); in [14], 17.4 µM (inactive); in assay [15], 56.5 µM (inactive); in [16], 88.3 µM (inactive); in [17], 40.7 µM (inactive); in [18], 32.7 µM (inactive). Besides, in assay [19], the GI50 was 18.7 µM (inactive).
Turning to `Cc1cc(C)nc(NS(=O)(=O)c2ccc(NC(=O)c3cc([N+](=O)[O-])cc([N+](=O)[O-])c3)cc2)n1`, the GI50 in assay [1] was > 100 µM (inactive); in assay [2], > 100 µM (inactive); in [3], > 100 µM (inactive); in [5], > 100 µM (inactive); in [6], > 100 µM (inactive); in [7], 60.7 µM (inactive). Further, the GI50 in [8] was 50.7 µM (inactive); in [9], 45.8 µM (inactive); in assay [20], > 100 µM (inactive); in assay [10] it was > 100 µM (inactive); in assay [11] it was 1.79 µM (inactive); in assay [13], 58.7 µM (inactive). The GI50 in assay [14] was 57.5 µM (inactive); in assay [16], 37 µM (inactive); in assay [17] it was > 100 µM (inactive); in assay [18] it was 16.4 µM (inactive); in assay [19], 77.3 µM (inactive).
In the case of `O=C1c2ccc3ccccc3c2CCC1N1CCCCC1` (stereo unspecified), the GI50 in assay [1] is 18 µM (inactive); in assay [2], 19.5 µM (inactive); in [3] it was 16.7 µM (inactive); in assay [4] it was 22.4 µM (inactive); in [5] it was 18.7 µM (inactive); in [6] it was 20.3 µM (inactive). For the same compound, the GI50 in assay [7] is 17.6 µM (inactive); in [8], 17.7 µM (inactive); in assay [20], 16.9 µM (inactive); in assay [12] it was 16.8 µM (inactive); in assay [13] it was 17.4 µM (inactive); in assay [15], 19.3 µM (inactive). Moreover, the GI50 in [16] is 14.6 µM (inactive); in assay [17] it was 19.7 µM (inactive); in assay [18] it was 20.7 µM (inactive); in assay [19] it was 16.7 µM (inactive).
